Source: ChEMBL document CHEMBL1201862, “PubChem BioAssay data set” (2004)
Active and inactive are the calls of the source.

Experiments:
HT-1080 = test: HT1080 cell viability loss – fluorescence readout (AID 620); type: functional, cell-based; settings: Homo sapiens
[1] = reduction of Shn3 3'UTR-driven luciferase in osteoblasts – cell-based, Clone20 osteoblasts, firefly luciferase, cherry-picked, dose response (AID 624132); type: functional;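 also: firefly luciferase luminescence from reporter carrying the Shn3 3'UTR in osteoblasts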
Nonstructural protein 1 = Nonstructural protein 1 (Influenza A virus, UniProt Q194T2); type: functional, Influenza A virus (A/California/07/2009(H1N1))
Sequence of Nonstructural protein 1 (Q194T2 whole entry): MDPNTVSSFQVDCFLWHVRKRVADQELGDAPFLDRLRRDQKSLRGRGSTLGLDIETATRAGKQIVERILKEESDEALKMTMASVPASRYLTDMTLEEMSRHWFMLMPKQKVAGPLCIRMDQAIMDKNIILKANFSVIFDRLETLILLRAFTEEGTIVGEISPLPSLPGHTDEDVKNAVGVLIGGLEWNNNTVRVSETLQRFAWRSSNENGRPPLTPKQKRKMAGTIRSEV

[2] = biological target: T1, Luciferin 4-monooxygenase (Photinus pyralis, UniProt P08659); test: Counter Screen for Luciferase-based Assay Positives. [Related pubchem assays: 620, 618, 411 ]
T1 sequence (P08659 whole entry): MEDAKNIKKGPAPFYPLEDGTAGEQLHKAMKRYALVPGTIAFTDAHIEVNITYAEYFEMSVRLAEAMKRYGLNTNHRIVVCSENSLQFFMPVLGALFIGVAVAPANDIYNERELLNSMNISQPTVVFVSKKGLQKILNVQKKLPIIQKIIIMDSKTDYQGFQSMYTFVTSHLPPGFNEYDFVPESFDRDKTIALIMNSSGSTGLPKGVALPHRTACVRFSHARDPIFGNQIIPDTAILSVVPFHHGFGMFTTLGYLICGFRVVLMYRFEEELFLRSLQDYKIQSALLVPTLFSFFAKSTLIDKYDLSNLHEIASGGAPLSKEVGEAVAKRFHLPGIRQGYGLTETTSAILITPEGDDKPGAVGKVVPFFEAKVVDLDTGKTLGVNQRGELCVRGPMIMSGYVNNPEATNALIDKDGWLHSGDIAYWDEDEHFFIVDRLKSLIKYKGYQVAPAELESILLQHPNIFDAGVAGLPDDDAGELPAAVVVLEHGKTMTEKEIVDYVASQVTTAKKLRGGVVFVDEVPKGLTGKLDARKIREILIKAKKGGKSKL

cells [3] = type: functional, cell-based
[4] = NIH3T3 cell viability loss – ATP luminescence, mouse fibroblasts, counter-screen, dose response (AID 2010); type: functional, cell-based;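 also: cells exposed to compound for about 90 hours before reading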
[5] = loss of viability in HepG2 cells – cell-based, CellTiter-Glo, cherry-picked, cytotoxicity control for Shn3 inhibitor project, dose response (AID 624134); type: functional
[6] = non-specific 3'UTR reporter inhibition in Clone20-Shn3RL – cell-based, Renilla luciferase, cherry-picked, counter-screen for Shn3 inhibitor project, dose response (AID 624133); type: functional
[7] = biological target: T2, Microphthalmia-associated transcription factor (Homo sapiens, UniProt O75030); test: reducers of TRPM1 reporter luminescence, concentration series – cell-based, SK-MEL-5, cherry-picked, set 3, MITF inhibitor project, dose response (AID 493073); type: functional;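 also: SK-MEL-5 melanoma cells with luciferase driven by the MITF target TRPM1 promoter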
T2 sequence (O75030 whole entry): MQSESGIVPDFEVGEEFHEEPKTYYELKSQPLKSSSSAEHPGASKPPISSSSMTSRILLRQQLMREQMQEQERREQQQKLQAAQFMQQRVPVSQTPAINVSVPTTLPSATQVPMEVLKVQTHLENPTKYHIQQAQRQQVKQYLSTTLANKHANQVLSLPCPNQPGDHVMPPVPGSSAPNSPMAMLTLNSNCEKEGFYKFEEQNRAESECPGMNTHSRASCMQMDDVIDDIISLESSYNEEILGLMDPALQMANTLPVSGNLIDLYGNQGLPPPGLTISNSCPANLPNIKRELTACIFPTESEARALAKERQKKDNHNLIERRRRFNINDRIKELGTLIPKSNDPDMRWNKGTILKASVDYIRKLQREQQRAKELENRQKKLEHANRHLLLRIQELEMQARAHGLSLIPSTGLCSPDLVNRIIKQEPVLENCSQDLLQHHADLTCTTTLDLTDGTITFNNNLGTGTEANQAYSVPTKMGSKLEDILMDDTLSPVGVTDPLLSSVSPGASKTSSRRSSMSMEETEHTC

[8] = Trypanosoma cruzi growth suppression in host cells – NIH3T3 host cells, beta-gal luminescence, confirmation (AID 2044); type: functional, cell-based;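 also: intracellular parasites grown in NIH/3T3 mouse fibroblasts as host cells; luminescent beta-galactosidase reporter signal from transgenic T. cruzi replicating inside host cells; inhibitors lower the luminescence signal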
A-375 [9] = test: proliferation inhibition in MITF-low A375 cells – cell-based, cherry-pick samples, set 2, counter-screen for MITF modulator project, dose response (AID 540335); type: functional; settings: Homo sapiens
cells [10] = type: functional, cell-based; remark: listed apart in the source
Escherichia coli = test: microbe, parasite or virus in culture
[11] = biological target: T3, Replicative DNA helicase DnaB (Mycobacterium tuberculosis, UniProt P9WMR3); test: DnaB intein splicing inhibitors, dose response, biochemical, cell-free fluorescence (AID 449749); type: functional
T3 sequence (P9WMR3 whole entry): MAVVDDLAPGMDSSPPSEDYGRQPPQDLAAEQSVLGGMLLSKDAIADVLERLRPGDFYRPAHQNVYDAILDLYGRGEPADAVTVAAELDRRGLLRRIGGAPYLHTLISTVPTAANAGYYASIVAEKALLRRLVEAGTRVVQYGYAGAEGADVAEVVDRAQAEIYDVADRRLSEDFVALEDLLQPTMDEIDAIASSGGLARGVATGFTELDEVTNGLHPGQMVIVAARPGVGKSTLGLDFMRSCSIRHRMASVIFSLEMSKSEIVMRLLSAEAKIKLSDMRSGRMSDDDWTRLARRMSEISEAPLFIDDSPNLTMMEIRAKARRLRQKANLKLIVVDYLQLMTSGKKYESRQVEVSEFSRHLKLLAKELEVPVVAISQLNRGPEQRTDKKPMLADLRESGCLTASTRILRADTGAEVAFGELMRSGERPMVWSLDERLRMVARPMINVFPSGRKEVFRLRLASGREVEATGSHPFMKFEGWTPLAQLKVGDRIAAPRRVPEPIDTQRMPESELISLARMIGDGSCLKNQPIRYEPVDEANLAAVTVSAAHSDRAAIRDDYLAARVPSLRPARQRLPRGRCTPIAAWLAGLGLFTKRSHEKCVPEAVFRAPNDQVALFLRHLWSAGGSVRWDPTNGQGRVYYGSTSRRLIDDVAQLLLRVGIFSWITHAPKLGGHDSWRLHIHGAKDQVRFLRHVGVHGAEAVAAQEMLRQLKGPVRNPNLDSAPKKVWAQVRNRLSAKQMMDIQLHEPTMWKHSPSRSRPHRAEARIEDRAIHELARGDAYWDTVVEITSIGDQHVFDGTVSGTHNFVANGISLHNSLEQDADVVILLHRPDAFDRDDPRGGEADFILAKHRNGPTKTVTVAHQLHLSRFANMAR

Protein RecA = biological target: T4, Protein RecA (Mycobacterium tuberculosis, UniProt P9WHJ3); test: Fluorescence Cell-Free Homogeneous Dose Retest to Identify Inhibitors of RecA-Intein Splicing Activity. [Related pubchem assays (depositor defined):AID2097, AID2223, AID489010, AID492950]; type: functional
T4 sequence (P9WHJ3 whole entry): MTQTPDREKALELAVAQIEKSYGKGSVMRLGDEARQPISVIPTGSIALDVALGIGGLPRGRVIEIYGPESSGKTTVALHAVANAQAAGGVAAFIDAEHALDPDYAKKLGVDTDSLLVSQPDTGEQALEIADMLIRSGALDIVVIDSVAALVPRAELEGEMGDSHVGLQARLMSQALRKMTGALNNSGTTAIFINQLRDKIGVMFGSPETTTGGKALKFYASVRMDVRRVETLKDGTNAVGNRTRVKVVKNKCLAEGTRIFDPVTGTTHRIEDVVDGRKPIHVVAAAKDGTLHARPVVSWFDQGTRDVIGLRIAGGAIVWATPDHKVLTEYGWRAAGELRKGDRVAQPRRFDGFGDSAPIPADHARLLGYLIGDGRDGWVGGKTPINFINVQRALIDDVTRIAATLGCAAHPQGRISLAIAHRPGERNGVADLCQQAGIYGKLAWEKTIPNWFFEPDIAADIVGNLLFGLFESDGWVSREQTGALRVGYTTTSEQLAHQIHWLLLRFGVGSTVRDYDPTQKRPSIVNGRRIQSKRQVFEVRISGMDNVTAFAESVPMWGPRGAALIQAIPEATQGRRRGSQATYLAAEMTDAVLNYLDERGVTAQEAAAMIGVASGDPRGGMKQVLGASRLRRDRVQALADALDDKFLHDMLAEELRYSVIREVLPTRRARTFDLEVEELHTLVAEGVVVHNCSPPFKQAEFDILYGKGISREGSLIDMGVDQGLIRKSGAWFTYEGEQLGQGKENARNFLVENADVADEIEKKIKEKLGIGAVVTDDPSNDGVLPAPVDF

A-375 [12] = test: MITF: Counter assay: A375 proliferation Measured in Cell-Based System Using Plate Reader - 2084-03_Inhibitor_Dose_DryPowder_Activity. [Related pubchem assays (depositor defined):AID488944]; type: functional; settings: Homo sapiens
Coagulation factor XII = biological target: T5, Coagulation factor XII (Homo sapiens, UniProt P00748); type: functional;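 also: activated factor XIIa alpha cleaving a fluorogenic AMC peptide substrate; inhibitor potency from loss of enzyme activity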
T5 sequence (P00748 whole entry): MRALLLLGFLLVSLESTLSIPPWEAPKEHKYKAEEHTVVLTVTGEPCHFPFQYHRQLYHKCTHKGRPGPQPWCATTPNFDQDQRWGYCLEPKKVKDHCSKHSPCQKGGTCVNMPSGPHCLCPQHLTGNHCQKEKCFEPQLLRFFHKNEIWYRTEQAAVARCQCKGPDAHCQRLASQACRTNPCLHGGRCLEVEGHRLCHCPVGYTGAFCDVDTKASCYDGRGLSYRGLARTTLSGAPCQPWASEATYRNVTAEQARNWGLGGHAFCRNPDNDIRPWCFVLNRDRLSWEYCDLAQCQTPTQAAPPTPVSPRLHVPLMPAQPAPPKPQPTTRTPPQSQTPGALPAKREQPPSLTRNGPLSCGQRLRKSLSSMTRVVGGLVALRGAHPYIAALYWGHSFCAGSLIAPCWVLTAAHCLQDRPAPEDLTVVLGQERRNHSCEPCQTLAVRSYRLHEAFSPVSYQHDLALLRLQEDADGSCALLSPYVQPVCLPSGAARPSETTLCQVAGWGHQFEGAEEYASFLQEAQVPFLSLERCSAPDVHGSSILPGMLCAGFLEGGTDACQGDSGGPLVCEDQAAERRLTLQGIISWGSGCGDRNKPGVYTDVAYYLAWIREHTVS

[13] = acridine orange displacement from DNA – biochemical, fluorescence polarization, cherry-pick, artefact control for RAD54 inhibitor project, dose response (AID 651673); type: functional
[14] = biological target: T6, DNA repair and recombination protein RAD54-like (Homo sapiens, UniProt Q92698); test: RAD54 Holliday junction migration blockers – biochemical, fluorescence, cherry-picked samples, dose series, confirmation (AID 651657); type: functional
T6 sequence (Q92698 whole entry): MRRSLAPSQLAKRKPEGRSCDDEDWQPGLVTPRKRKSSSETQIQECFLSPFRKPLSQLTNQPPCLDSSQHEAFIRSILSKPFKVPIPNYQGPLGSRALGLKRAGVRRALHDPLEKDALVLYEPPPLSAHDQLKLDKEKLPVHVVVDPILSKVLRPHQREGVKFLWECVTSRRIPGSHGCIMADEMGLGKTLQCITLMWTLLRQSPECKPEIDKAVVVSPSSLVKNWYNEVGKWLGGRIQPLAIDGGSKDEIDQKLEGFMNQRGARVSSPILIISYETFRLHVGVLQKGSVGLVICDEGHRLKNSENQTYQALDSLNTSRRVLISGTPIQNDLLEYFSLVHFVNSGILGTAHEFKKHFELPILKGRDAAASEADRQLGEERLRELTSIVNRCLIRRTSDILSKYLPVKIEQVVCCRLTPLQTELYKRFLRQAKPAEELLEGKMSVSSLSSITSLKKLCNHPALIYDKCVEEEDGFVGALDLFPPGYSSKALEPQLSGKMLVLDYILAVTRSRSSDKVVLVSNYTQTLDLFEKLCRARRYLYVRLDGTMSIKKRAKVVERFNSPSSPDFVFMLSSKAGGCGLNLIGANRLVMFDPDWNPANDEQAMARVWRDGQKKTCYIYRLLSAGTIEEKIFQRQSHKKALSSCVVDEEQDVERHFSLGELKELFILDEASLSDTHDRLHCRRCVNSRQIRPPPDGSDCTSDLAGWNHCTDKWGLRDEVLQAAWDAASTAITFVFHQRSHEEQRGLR

[15] = biological target: Dual specificity tyrosine-phosphorylation-regulated kinase 1A (Rattus norvegicus, UniProt Q63470); type: biochemical, Homo sapiens
[16] = biological target: Dual specificity protein phosphatase 3 (Homo sapiens, UniProt P51452); test: SAR VHR1 Fluorescent Assay for In Vitro dose response studies Set 3. [Related pubchem assays (depositor defined):AID1654, AID1661, AID1878]; type: functional
Sequence of Dual specificity protein phosphatase 3 (P51452 whole entry): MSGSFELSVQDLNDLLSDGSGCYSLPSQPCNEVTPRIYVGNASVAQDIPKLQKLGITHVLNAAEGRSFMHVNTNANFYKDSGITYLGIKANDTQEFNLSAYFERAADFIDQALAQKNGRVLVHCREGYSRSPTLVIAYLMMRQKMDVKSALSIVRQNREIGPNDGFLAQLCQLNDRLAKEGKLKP

CAAX prenyl protease 1 = CAAX prenyl protease 1 (Saccharomyces cerevisiae S288c, UniProt P47154); test: yeast CAAX protease Ste24 inhibition – biochemical, S. cerevisiae, plate reader, cherry-pick, dose response (AID 488815)
Sequence of CAAX prenyl protease 1 (P47154 whole entry): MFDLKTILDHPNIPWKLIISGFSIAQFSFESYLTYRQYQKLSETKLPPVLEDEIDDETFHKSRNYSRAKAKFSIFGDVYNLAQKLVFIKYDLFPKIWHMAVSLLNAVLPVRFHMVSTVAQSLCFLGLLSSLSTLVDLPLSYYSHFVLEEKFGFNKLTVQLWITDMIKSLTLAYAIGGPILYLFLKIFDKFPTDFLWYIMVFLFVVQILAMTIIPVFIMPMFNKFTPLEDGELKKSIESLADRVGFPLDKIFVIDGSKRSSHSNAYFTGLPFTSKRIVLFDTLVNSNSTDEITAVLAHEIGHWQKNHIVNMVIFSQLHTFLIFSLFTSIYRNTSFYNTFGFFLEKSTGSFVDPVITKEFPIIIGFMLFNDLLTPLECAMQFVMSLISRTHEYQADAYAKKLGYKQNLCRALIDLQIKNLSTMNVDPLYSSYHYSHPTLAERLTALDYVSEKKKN

Trypsin = Trypsin (Sus scrofa, UniProt P00761); test: trypsin protease activity blockade – biochemical, quenched peptide fluorescence, cherry-pick, selectivity assay for Rce1 protease inhibitor project, dose response (AID 488789)
Sequence of Trypsin (P00761 whole entry): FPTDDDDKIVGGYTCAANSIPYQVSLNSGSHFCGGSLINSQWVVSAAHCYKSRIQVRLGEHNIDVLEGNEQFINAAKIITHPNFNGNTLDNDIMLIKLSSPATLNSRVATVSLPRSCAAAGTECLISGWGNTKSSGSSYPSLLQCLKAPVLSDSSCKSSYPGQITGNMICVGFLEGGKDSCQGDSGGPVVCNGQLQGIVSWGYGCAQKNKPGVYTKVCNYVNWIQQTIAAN

[17] = biological target: T1, Luciferin 4-monooxygenase; test: inhibition of purified Photinus pyralis luciferase – biochemical, luminescence, dose response (AID 1891)
CAAX prenyl protease 2 = CAAX prenyl protease 2 (Homo sapiens, UniProt Q9Y256); test: inhibition of Ras-converting CAAX protease Rce1 – biochemical, yeast membranes, quenched-peptide fluorescence, cherry-pick, dose response (AID 588849)
Sequence of CAAX prenyl protease 2 (Q9Y256 whole entry): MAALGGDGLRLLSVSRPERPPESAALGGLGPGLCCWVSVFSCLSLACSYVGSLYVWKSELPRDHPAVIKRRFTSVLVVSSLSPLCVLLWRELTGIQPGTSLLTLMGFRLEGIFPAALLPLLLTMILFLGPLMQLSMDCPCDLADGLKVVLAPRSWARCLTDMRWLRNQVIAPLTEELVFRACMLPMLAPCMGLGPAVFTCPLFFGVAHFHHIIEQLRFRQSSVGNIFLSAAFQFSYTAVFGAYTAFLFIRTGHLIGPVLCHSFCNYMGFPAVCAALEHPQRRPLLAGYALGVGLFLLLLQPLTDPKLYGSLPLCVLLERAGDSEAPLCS

[18] = Luminescence Cell-Based Dose Confirmation HTS to Identify Inhibitors of Platelet Dense Granule Release. [Related pubchem assays: 1663 (Primary HTS), 1678 (Summary of Project)]; type: functional

Oc1c(CN2CCCCC2)cc(COCc2ccccc2)c2cccnc12
EC50 (HT-1080): 27.9 µM (active)
AC50 [1]: 0.537 µM (active)
IC50 (Nonstructural protein 1): 1.86 µM (active)
EC50 [2]: > 100 µM (not active)
EC50 (cells [3]): > 350 µM (not active)
EC50 [4]: 6.52 µM (active)
AC50 [5]: 10.8 µM (active)
AC50 [6]: 7.15 µM (active)
AC50 [7]: 2.17 µM (active)
EC50 [8]: 4.04 µM (active)
AC50 (A-375 [9]): 13.5 µM (active)
EC50 (cells [10]): 7.62 µM (active)

COc1ccccc1C(C[N+](=O)[O-])c1c[nH]c2ccccc12 (centres undefined)
AC50 (Escherichia coli): 90.9 µM (active)

O=c1c(Cl)c(Cl)cnn1Cc1ccc(F)cc1
AC50 [11]: 39.5 µM (active)
EC50 (Protein RecA): 11.3 µM (active)
AC50 (A-375 [12]): 30.8 µM (active)
AC50 [7]: 8.9 µM (active)
IC50 (Coagulation factor XII): > 50 µM (inactive)

COc1ccc2cc3cc(C(=O)NCCCN4CCOCC4)oc3nc2c1
AC50 [13]: 55.3 µM (active)
AC50 [14]: 36.7 µM (active)
AC50 [15]: 5.51 µM (active)
EC50 [4]: > 60 µM (not active)
EC50 [8]: 2.2 µM (active)

CSc1ccc2nc(Nc3nnc(-c4ccc5c(c4)OCCO5)o3)sc2c1
IC50 [16]: 0.682 µM (active)

CCn1c(-c2cccs2)nc2ccccc21
AC50 (CAAX prenyl protease 1): 2.54 µM (active)
AC50 (Trypsin): 6.83 µM (active)
EC50 [17]: > 112 µM (not active)
AC50 (CAAX prenyl protease 2): 11.6 µM (active)
EC50 [18]: > 112 µM (not active)
